# Laboratory results from patent publication US12558366B2, “Bacterial DNA gyrase inhibitors and methods of use thereof” (THE FLORIDA INTERNATIONAL UNIVERSITY BOARD OF TRUSTEES, priority 2021, dated 2026).
# Like-named read-outs stand apart in the source and are kept apart here.
# Legend:
# E. coli DNA gyrase [1] = target: T1, E. coli DNA gyrase (Escherichia coli, UniProt P0AES4+P0AES6); assay: E. coli DNA gyrase inhibition (agarose gel-based and/or SDFQ-based, not specified per value); format: biochemical
# T1 sequence (P0AES4 whole entry, one chain of several): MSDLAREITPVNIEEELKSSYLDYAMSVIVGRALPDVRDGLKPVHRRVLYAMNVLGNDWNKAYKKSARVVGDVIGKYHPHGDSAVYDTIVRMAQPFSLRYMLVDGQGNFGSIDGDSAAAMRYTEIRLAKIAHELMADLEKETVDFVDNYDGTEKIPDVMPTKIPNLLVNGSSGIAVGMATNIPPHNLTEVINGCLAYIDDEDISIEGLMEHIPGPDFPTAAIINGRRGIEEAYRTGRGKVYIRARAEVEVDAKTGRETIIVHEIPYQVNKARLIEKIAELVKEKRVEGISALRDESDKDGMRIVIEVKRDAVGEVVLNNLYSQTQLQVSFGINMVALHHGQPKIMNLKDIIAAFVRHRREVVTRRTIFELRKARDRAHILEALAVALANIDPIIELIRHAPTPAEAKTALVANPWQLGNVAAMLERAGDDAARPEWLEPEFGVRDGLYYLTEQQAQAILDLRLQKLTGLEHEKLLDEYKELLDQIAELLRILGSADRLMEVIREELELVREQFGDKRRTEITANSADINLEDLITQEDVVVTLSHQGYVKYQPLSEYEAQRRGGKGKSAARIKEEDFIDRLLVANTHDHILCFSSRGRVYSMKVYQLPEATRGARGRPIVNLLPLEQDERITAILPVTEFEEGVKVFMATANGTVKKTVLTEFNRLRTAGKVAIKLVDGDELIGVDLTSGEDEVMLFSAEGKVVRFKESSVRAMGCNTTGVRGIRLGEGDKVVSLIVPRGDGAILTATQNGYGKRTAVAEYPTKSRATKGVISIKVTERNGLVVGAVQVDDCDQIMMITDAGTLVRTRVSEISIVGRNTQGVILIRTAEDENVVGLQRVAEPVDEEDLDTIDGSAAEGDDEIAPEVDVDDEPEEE
# E. coli DNA gyrase [2] = target: T1, E. coli DNA gyrase; assay: Agarose gel-based DNA gyrase inhibition assays; format: biochemical
# Protocol: 100 ng of DNA gyrase was used to supercoil the rx pAB1 in the presence of different concentrations of a gyrase inhibitor. […] Samples were analyzed by electrophoresis in 1% w/v agarose gels followed by ethidium bromide staining and photographed under UV light.
# E. coli imp = assay: microbe, parasite or virus in culture; format: cell-based; conditions: for MIC: Escherichia coli
# Protocol: (§1) Antibacterial minimum inhibitory concentrations (MICs) were obtained from three independent experiments using broth microdilution methods in 96-well plates according to Clinical and Laboratory Standards Institute guidelines. Cells were culture from singles colonies in MHIIB medium for 24 h at 37° C. in agitation (200 RPM). The cultures were then diluted using the same media to reach an OD600 of 0.1. Then, 50 μL of the diluted cultures were added to the plates holding 50 μL of serially diluted compounds in MHIIB. The plates were incubated at 37° C. for 20 h. The starting inoculum was fixated to 10^5 colony-forming units per ml.
# B. subtilis (ATCC 6633) = assay: Minimum inhibitory concentration, B. subtilis; format: cell-based; conditions: for MIC: Bacillus subtilis, ATCC6633, Tables 3a-3c
# Protocol: as §1
# E. coli (ATCC 25922) = assay: Minimum inhibitory concentration, E. coli; format: cell-based; conditions: for MIC: Escherichia coli, ATCC25922, read-out: Minimum Inhibitory Concentration E. coli
# Protocol: as §1
# MRSA (ATCC BAA44) = assay: microbe, parasite or virus in culture; format: cell-based, S. aureus
# Protocol: as §1
# S. aureus (ATCC 14775) = assay: Minimum inhibitory concentration, S. aureus; format: cell-based
# Protocol: as §1
# Mtb = Mtb inhibition (antibacterial activity); format: cell-based, Mycobacterium tuberculosis; set-up: % Mtb inhibition: concentration or dose not given beside the values; conditions: for % Mtb inhibition: Table 5
# DNA = DNA binding, intercalation and photo-induced crosslinking
# Mtb DNA gyrase = Mtb DNA gyrase (Mycobacterium tuberculosis, UniProt P9WG45+P9WG47); assay: Mtb DNA gyrase inhibition; format: biochemical
# Mtb DNA gyrase, sequence (P9WG45 whole entry): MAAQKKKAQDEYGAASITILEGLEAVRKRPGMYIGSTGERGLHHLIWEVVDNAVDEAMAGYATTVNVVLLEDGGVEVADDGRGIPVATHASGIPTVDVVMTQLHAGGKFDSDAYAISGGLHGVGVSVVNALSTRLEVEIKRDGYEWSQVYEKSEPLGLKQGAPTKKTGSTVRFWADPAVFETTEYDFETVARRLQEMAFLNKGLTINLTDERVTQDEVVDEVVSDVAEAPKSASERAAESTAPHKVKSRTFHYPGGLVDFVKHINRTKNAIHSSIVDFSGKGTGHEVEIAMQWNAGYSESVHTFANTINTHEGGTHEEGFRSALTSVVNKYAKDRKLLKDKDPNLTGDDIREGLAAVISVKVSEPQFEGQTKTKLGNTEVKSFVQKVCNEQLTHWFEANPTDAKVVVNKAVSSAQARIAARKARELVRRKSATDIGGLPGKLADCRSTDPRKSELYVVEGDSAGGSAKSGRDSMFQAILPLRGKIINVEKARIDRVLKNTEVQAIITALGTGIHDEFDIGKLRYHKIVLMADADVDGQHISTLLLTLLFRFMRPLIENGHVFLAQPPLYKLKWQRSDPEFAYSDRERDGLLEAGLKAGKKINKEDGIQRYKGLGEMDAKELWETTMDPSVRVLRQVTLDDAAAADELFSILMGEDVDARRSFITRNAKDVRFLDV
# Mtb DNA gyrase, sequence (P9WG47 whole entry): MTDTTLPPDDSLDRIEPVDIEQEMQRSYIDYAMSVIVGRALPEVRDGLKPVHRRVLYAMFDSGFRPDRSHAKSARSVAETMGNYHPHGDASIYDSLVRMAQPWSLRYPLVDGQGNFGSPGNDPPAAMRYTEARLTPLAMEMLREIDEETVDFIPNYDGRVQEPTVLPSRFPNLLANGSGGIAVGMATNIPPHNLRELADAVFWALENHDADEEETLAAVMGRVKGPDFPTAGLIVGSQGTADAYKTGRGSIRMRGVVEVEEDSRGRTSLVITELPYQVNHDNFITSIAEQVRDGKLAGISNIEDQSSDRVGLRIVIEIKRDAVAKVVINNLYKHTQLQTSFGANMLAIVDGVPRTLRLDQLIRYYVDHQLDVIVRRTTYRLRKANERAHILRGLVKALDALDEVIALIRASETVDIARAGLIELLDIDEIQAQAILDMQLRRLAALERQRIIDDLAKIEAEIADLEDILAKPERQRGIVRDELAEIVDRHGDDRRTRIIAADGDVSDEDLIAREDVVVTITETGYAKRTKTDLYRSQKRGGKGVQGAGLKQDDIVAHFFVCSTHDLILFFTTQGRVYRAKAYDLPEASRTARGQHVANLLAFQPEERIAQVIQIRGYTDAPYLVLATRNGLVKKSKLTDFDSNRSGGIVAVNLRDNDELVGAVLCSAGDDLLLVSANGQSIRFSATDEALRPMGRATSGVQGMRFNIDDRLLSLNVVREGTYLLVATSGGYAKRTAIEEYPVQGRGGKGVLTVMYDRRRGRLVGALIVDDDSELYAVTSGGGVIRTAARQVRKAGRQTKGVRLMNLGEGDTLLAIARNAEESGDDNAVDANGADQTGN
# [3] = Table 2 values, read-out: IC50 ( ≤15 μM) IC50
# [4] = read-out: Minimum Inhibitory Concentration E. coli imp
compound,measurement,setting,value
COc1cc2ccccc2cc1C(=O)NC(=S)Nc1ccc(C(=O)O)cc1 [Compound 72],IC50,E. coli DNA gyrase [1]; [3],12.4 µM
Cc1cc(C)c2sc(NC(=O)C3CC3)nc2c1 [Compound 73],IC50,E. coli DNA gyrase [1]; [3],7.86 µM
O=C1NC(=S)SC1=Cc1cc(Cl)cc(Cl)c1O [Compound 207],IC50,E. coli DNA gyrase [1],50 to 200 µM
same,inhibition of E. coli DNA gyrase activities,E. coli DNA gyrase [2]; 50 μM of compounds,inhibited
same,inhibition of E. coli DNA gyrase activities,E. coli DNA gyrase [2]; 200 μM of compounds,completely inhibited
O=C(Nc1cccc(C2=NCCN2)c1)Nc1cccc(C2=NCCN2)c1 [Compound 79],inhibition of E. coli DNA gyrase activities,E. coli DNA gyrase [2]; 200 μM of compounds,completely inhibited
same,MIC,E. coli imp; [4],50 µM
"CN1C[C@H](CNC(=O)OCc2ccccc2)C[C@@H]2c3cccc4c3c(cn4C)C[C@H]21 [Metergoline, reference compound]",inhibition of gyrase activities,E. coli DNA gyrase [2]; at 100 and 200 μM,inhibits gyrase activities
Biphenyl gallate,MIC (μg/ml) B. subtilis ATCC 6633,B. subtilis (ATCC 6633); Table 7,16 µg/mL
same,MIC (μg/ml) E. coli ATCC 25922,E. coli (ATCC 25922); Table 7,517.29 µg/mL
same,MIC (μg/ml) S. aureus (MRSA) ATCC BAA44,MRSA (ATCC BAA44); Table 7,16 µg/mL
same,MIC (μg/ml) S. aureus ATCC 14775,S. aureus (ATCC 14775); Table 7,16 µg/mL
same,MIC (μg/ml) E. coli imp,E. coli imp; Table 7,36.43 µg/mL
O=C(O)CCN1C(=O)/C(=C/c2ccc(-c3nc4ccccc4s3)o2)SC1=S [Compound 27],IC50,E. coli DNA gyrase [1]; [3],1.74 µM
CNC(=O)[C@H]1O[C@@H](n2cnc3c(NCc4cccc(I)c4)nc(Cl)nc32)[C@H](O)[C@@H]1O [Compound 76],IC50,E. coli DNA gyrase [1]; [3],2.53 µM
CCCCCCCCOC(=O)c1cc(O)c(O)c(O)c1 [Octyl gallate],MIC,E. coli imp; read-out: MIC (μg/ml) E. coli imp,14.1 µg/mL
Cc1c(CCC(=O)O)c(=O)oc2c(C)c3occ(-c4ccc(Cl)cc4)c3cc12 [Compound 120],MIC,B. subtilis (ATCC 6633),> 200 µM
same,MIC,E. coli (ATCC 25922),> 200 µM
same,% Mtb inhibition,Mtb,18.7%
same,MIC,E. coli imp; [4],> 200 µM
Cc1c(CCC(=O)O)c(=O)oc2c(C)c3occ(-c4ccccc4)c3cc12 [Compound 121],MIC,E. coli (ATCC 25922),> 200 µM
same,inhibition of E. coli DNA gyrase activities,E. coli DNA gyrase [2]; 50 μM of compounds,completely inhibited
same,% Mtb inhibition,Mtb,36.7%
same,MIC,E. coli imp; [4],100 µM
Cc1c(CCC(=O)O)c(=O)oc2c(C)c3occ(-c4ccc(F)cc4)c3cc12 [Compound 123],MIC,E. coli (ATCC 25922),> 200 µM
same,% Mtb inhibition,Mtb,31.8%
same,MIC,E. coli imp; [4],> 200 µM
O=C(O)C(Cc1ccccc1)N1C(=O)/C(=C\C=C\c2ccco2)SC1=S (stereo not drawn) [Compound 157],IC50,E. coli DNA gyrase [1]; [3],10 µM
same,MIC,E. coli imp; [4],100 µM
"mithramycin [Compound 225, reference compound]",inhibition of E. coli DNA gyrase activities,E. coli DNA gyrase [1],strongly inhibited
same,inhibition of E. coli DNA gyrase activities,E. coli DNA gyrase [2]; 50 μM of compounds,completely inhibited
same,inhibition of E. coli DNA gyrase activities,E. coli DNA gyrase [2]; 200 μM of compounds,completely inhibited
Cc1cc(NN=Cc2ccc([N+](=O)[O-])o2)nc2ccccc12 [Compound 134],MIC,"MRSA (ATCC BAA44); Staphylococcus aureus, read-out: Minimum Inhibitory Concentration S. aureus MRSA",200 µM
same,MIC,"S. aureus (ATCC 14775); Staphylococcus aureus, ATCC14775, Tables 3a-3c, read-out: Minimum Inhibitory Concentration S. aureus",200 µM
CCOC(=O)c1cc2c(=Cc3ccc(N(C)C)cc3)c3ccccc3n2[n+]1C.O=S(=O)([O-])C(F)(F)F [Compound 239],DNA intercalator,DNA,DNA intercalators
O=C1/C(=C\c2ccc(O)c([N+](=O)[O-])c2)SC(=S)N1Cc1ccccc1 [Compound 192],IC50,E. coli DNA gyrase [1]; [3],8 µM
COc1ccc2c(c1)/c(=C\c1ccc(N(C)C)cc1)c1cc(-c3ccccc3)[n+](C)n12.O=S(=O)([O-])C(F)(F)F [Compound 237],DNA intercalator,DNA,DNA intercalators
Cc1cccc2c1N=C(O)C2=NNc1ccc(S(C)(=O)=O)cc1 [Compound 109],inhibition of E. coli DNA gyrase activities,E. coli DNA gyrase [2]; 50 μM of compounds,completely inhibited
O=C(O)c1ccc(/N=N/C2C(O)=Nc3ccc(F)cc32)cc1 (stereo not drawn) [Compound 127],activity against Mtb,Mtb,Mtb active hits
O=C(O)C(c1ccccc1)N1C(=O)/C(=C\c2ccc(-c3cccc(Cl)c3)o2)SC1=S (stereo not drawn) [Compound 176],IC50,E. coli DNA gyrase [1]; [3],2 µM
NN=C1c2ccccc2C(=O)C1C(=O)C(c1ccccc1)c1ccccc1 (stereo not drawn) [Compound 211],IC50,E. coli DNA gyrase [1],50 to 200 µM
same,inhibition of E. coli DNA gyrase activities,E. coli DNA gyrase [2]; 50 μM of compounds,inhibited
same,inhibition of E. coli DNA gyrase activities,E. coli DNA gyrase [2]; 200 μM of compounds,completely inhibited
O=C(O)CCCCCN1C(=O)/C(=C\c2ccc(-c3ccc(Cl)cc3)o2)SC1=S [Compound 36],IC50,E. coli DNA gyrase [1]; [3],7.42 µM
CN(C)c1ccc2cc3ccc(N(C)C)cc3nc2c1 [Compound 249],DNA intercalator,DNA,DNA intercalators
O=C(/C=C/c1ccco1)Nc1cccc2cccnc12 [Compound 164],MIC,E. coli imp; [4],100 µM
COc1cc(/C=N/N=c2\[nH]c3ccccc3s2)cc([N+](=O)[O-])c1O [Compound 178],IC50,E. coli DNA gyrase [1]; [3],1.56 µM
same,activity against Mtb,Mtb,Mtb active hits
Cc1c2cc(O)c(=O)cc-2oc2cc(O)c(O)cc12 [Compound 75],IC50,E. coli DNA gyrase [1]; [3],5.28 µM
CSc1nc(SCC(=O)O)c2sc3nc(-c4ccccc4)c4c(c3c2n1)CCC4 [Compound 19],IC50,E. coli DNA gyrase [1]; [3],3.55 µM
same,activity against Mtb,Mtb,Mtb active hits
CCOc1ccc2nc3cc(N)ccc3c(N)c2c1 [Compound 257],DNA intercalator,DNA,DNA intercalators
CN1/C(=C/c2cc[n+](C)c3ccccc23)Sc2ccccc21.Cc1ccc(S(=O)(=O)[O-])cc1 [Compound 248],DNA intercalator,DNA,DNA intercalators
COc1cccc2nc3c(C(=O)NCCN(C)C)cccc3cc12.Cl [Compound 240],DNA intercalator,DNA,DNA intercalators
N#C/C(=C\c1coc2ccc(O)cc2c1=O)C(=O)/N=c1\[nH]c2ccccc2s1 [Compound 165],IC50,E. coli DNA gyrase [1]; [3],6.25 µM
Nc1ccc2cc3ccc(N)cc3nc2c1 [Compound 246],DNA intercalator,DNA,DNA intercalators
CN(C)CCNC(=O)c1cccc2nc3cccc(F)c3nc12.Cl [Compound 241],DNA intercalator,DNA,DNA intercalators
Cc1c(CCC(=O)O)c(=O)oc2cc3occ(-c4ccc(Cl)cc4)c3cc12 [Compound 25],MIC,B. subtilis (ATCC 6633),25 µM
same,IC50,E. coli DNA gyrase [1]; [3],10.6 µM
same,% Mtb inhibition,Mtb,0.8%
same,MIC,E. coli imp; [4],25 µM
C[n+]1c(-c2ccc(C=NNC(=O)c3ccc(C(=O)NN=Cc4ccc(-c5cn6ccccc6[n+]5C)cc4)cc3)cc2)cn2ccccc21 [Compound 229],IC50,E. coli DNA gyrase [1],25 to 50 µM
"O=c1ccc2cc3ccoc3cc2o1 [psoralen, reference compound]",inhibition of E. coli DNA gyrase activities,E. coli DNA gyrase [1],not a gyrase inhibitor
CN(C)c1ccc(/C=c2\c3ccccc3n3c2cc(-c2ccccc2)[n+]3C)cc1 [Compound 236],DNA intercalator,DNA,DNA intercalator
Brc1ccc2c(c1)-c1ccccc1C1=NCCN12 [Compound 217],DNA intercalator,DNA,DNA intercalators
"CNC(=O)[C@H]1O[C@@H](n2cnc3c(NCc4ccc(N)cc4)ncnc32)[C@H](O)[C@@H]1O [AB-MECA, reference compound]",inhibition of Mtb DNA gyrase activities,Mtb DNA gyrase,did not inhibit
Cc1cccc2c1N=C(O)C2/N=N/c1ccc(C(=O)O)cc1 (stereo not drawn) [Compound 128],activity against Mtb,Mtb,Mtb active hits
CC(C)(CS(=O)(=O)[O-])NC(=O)CC[N+](C)(C)CCO [Compound 42],IC50,E. coli DNA gyrase [1]; [3],2.18 µM
Cc1c(CCC(=O)O)c(=O)oc2c(C)c3occ(-c4ccc(N5CCCC5)cc4)c3cc12 [Compound 125],% Mtb inhibition,Mtb,10.2%
same,growth inhibition of MRSA,MRSA (ATCC BAA44),did not inhibit the growth
same,growth inhibition of S. aureus,S. aureus (ATCC 14775),did not inhibit the growth
O=C1Nc2ccc(Br)cc2C1=NNc1ccc(C(=O)O)cc1 [Compound 111],MIC,B. subtilis (ATCC 6633),100 µM
same,inhibition of E. coli DNA gyrase activities,E. coli DNA gyrase [2]; 50 μM of compounds,completely inhibited
"Cc1cc(C)c2c(c1)C(=NNc1ccc(C(=O)O)cc1)C(O)=N2 [Compound 9, 4-[2-(5,7-Dimethyl-2-oxoindol-3-yl)hydrazinyl]benzoic acid]",IC50,E. coli DNA gyrase [1]; [3],1.69 µM
same,growth inhibition of MRSA,MRSA (ATCC BAA44),strongly inhibited the growth
same,growth inhibition of S. aureus,S. aureus (ATCC 14775),strongly inhibited the growth
O=C(O)c1cccc(-c2ccc(/C=c3/sc4nc5ccccc5n4c3=O)o2)c1 [Compound 47],IC50,E. coli DNA gyrase [1]; [3],1.87 µM
same,activity against Mtb,Mtb,Mtb active hits
CSC1SC2C(=O)N(C)C(C(C)C)C(=O)OCC(NC(=O)c3cnc4ccccc4n3)C(=O)NC(C)C(=O)N(C)C1C(=O)N(C)C(C(C)C)C(=O)OCC(NC(=O)c1cnc3ccccc3n1)C(=O)NC(C)C(=O)N2C (stereo not drawn) [Compound 258],DNA intercalator,DNA,DNA intercalators
O=C(NN1C(=O)/C(=C\C=C\c2ccco2)SC1=S)c1ccccc1O [Compound 180],MIC,E. coli imp; [4],100 µM
O=[N+]([O-])c1cc(/C=N/Nc2nc3ccccc3[nH]2)c(O)cc1O [Compound 159],IC50,E. coli DNA gyrase [1]; [3],6.25 µM
"O=C1OC2(c3ccccc31)c1cc(I)c(O)c(I)c1Oc1c2cc(I)c(O)c1I [Compound 253, Erythrosin B]",IC50,E. coli DNA gyrase [1]; [3],3.12 µM
Cc1c(CC(=O)O)c(=O)oc2c(C)c3occ(-c4ccc(Br)cc4)c3cc12 [Compound 117],MIC,B. subtilis (ATCC 6633),> 200 µM
same,MIC,E. coli (ATCC 25922),> 200 µM
same,% Mtb inhibition,Mtb,24.7%
same,MIC,E. coli imp; [4],> 200 µM
Nc1c2ccccc2nc2ccccc12 [Compound 247],DNA intercalator,DNA,DNA intercalators
